Test results published in patent US20240269317A1, “TARGETED ENCAPSULATION STRATEGIES FOR TREATMENT MODALITIES” (NUTARIA LTD., priority 2021, published 2024).

How the values were obtained:
[1] = molecular target: T1, PPARγ (Homo sapiens, UniProt P37231); conditions: classified by ability to inhibit rosiglitazone-induced cellular responses; cited from earlier work
T1 sequence (P37231 1-505): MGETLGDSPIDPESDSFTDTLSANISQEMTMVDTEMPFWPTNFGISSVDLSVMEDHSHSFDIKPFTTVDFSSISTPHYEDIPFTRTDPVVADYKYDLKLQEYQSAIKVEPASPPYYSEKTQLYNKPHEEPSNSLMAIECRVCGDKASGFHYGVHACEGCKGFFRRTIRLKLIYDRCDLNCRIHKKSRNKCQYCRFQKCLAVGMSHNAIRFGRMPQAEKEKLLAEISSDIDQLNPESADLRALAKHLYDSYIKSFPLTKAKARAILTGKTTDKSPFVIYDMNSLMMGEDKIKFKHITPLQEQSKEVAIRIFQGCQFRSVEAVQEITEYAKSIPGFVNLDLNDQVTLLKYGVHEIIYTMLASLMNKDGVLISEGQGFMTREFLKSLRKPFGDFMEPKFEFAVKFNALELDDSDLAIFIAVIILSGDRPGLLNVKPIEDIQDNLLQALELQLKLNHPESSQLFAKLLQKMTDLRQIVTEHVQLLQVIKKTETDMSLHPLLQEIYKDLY

[2] = system: nuclear transcription factor κB (NF-κB) activation; conditions: cited from earlier work; for activation of IRAK-1, IKK-β, NF-κB, and MAP kinases (ERK, JNK, and p-38): LPS-stimulated murine peritoneal macrophages; for NF-κB activation: lipopolysaccharide (LPS)-stimulated murine peritoneal macrophages
[3] = system: Human Neuroblastoma cells (SH Sy5Y cells cell line); assay: in-vitro curcumin delivery experiment (curcumin fluorescence); type: cell-based; conditions: after 3.5 hours of treatment, relative to the 1 hour time point
From the text: FIGS. 5a-b depict different time points of the same experiment. […] This effect might be due to intra-cellular metabolism of the curcumin present in the SLN 10+Caffeine 13 sample.

[4] = molecular target: T2, cyclooxygenase-2 (COX-2) (Homo sapiens, UniProt P35354); conditions: cited from earlier work
T2 sequence (P35354 18-604): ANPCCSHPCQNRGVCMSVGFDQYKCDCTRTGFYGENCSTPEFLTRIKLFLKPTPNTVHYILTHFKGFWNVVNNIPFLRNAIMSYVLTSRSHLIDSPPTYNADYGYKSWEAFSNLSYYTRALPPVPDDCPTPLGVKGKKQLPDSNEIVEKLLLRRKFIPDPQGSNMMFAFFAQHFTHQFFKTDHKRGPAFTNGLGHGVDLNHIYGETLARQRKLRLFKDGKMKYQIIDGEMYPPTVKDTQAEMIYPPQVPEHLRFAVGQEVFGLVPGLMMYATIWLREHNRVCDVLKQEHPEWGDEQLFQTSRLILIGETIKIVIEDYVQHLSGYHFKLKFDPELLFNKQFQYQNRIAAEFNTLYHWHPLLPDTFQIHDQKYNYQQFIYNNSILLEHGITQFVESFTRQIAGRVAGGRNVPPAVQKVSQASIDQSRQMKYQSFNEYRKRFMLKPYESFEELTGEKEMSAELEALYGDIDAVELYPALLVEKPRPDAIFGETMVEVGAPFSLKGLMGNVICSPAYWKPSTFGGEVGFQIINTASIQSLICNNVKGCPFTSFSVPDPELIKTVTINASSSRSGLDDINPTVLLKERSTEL

Molecule	PPARγ activity (agonist, antagonist or modulator) [1]	also measured
O=c1cc(-c2ccc(O)cc2)oc2cc(O)cc(O)c12 [apigenin]	modulators	–
COc1ccc(-c2coc3cc(O)cc(O)c3c2=O)cc1 [biochanin A]	agonist	–
CC(C)=CCC[C@](C)(O[C@@H]1O[C@H](CO)[C@@H](O)[C@H](O)[C@H]1O)[C@H]1CC[C@]2(C)[C@@H]1[C@H](O)C[C@@H]1[C@@]3(C)CC[C@H](O)C(C)(C)[C@@H]3CC[C@]12C [compound K]	–	activation of IRAK-1, IKK-β, NF-κB, and MAP kinases (ERK, JNK, and p-38) [2]: significantly inhibited; NF-κB activation [2]: inhibited
COc1cc(/C=C/C(=O)CC(=O)/C=C/c2ccc(O)c(OC)c2)ccc1O [curcumin]	–	curcumin fluorescence [3]: remained at the same levels
COc1ccc(-c2cc(=O)c3c(O)cc(O)cc3o2)cc1O [diosmetin]	antagonists	–
CC(C)=CCC[C@](C)(O[C@@H]1O[C@H](CO[C@@H]2O[C@H](CO)[C@@H](O)[C@H](O)[C@H]2O)[C@@H](O)[C@H](O)[C@H]1O)[C@H]1CC[C@]2(C)[C@@H]1[C@H](O)C[C@@H]1[C@@]3(C)CC[C@H](O[C@@H]4O[C@H](CO)[C@@H](O)[C@H](O)[C@H]4O[C@@H]4O[C@H](CO)[C@@H](O)[C@H](O)[C@H]4O)C(C)(C)[C@@H]3CC[C@]12C [ginsenoside Rb1]	–	activation of IRAK-1, IKK-β, NF-κB, and MAP kinases (ERK, JNK, and p-38) [2]: significantly inhibited; NF-κB activation [2]: inhibited
O=c1cc(-c2ccc(O)c(O)c2)oc2cc(O)cc(O)c12 [luteolin]	antagonists	–
O=C1C[C@@H](c2ccc(O)cc2)Oc2cc(O)cc(O)c21 [naringenin]	modulators	–
O=c1c(O)c(-c2ccc(O)c(O)c2)oc2cc(O)cc(O)c12 [quercetin]	antagonists	–
O=C(/C=C/c1ccc(O)c(O)c1)O[C@H](Cc1ccc(O)c(O)c1)C(=O)O [rosmarinic acid]	antagonists	–
C-phycocyanin	–	IC50 COX-2/IC50 COX-1 ratio [4]: 0.04
